Entries after “also recorded” stand apart in the source; their conditions may differ.
Legend:
[1] = tested on: protein translation in rabbit reticulocyte lysates; test: in vitro translation of 35S-Met-labeled GFP-SuFu in rabbit reticulocyte lysates, SDS-PAGE and autoradiography; type: biochemical; conditions: for inhibition of protein translation in vitro: varying concentrations, 1 hour at 30° C.
Description: (§1) A plasmid carrying a GFP fusion of the mouse Suppressor of Fused (SuFu) gene under the control of an SP6 RNA polymerase promoter was used to generate 35[S]-Met-labeled GFP-SuFu by in vitro translation in rabbit reticulocyte lysates (TNT SP6 Quick coupled transcription/translation kit, Promega), according to the manufacturer's instructions. Translation reactions were performed for 1 hour at 30° C., in the absence or presence of varying concentrations of puro and OP-puro. The reactions were stopped by addition of SDS-PAGE sample buffer with 50 mM DTT and boiling. Equal amounts of lysate were separated by SDS-PAGE and the amount of in vitro translated GFP-SuFu was determined by autoradiography.
as §1, with “^35S-Met-labeled” for “35[S]-Met-labeled”, “AE-puro (azido-puromycin, FIG. 5A).” for “OP-puro.”

[2] = tested on: Cells; conditions: Beatty et al. 2002; cited from earlier work
[3] = tested on: NIH-3T3 cells; test: OP-puro labeling of cultured cells, CuAAC with Alexa568-azide, fluorescence microscopy; type: cell-based
Description: NIH-3T3 cells were grown on glass coverslips in Dulbecco modified Eagle's medium (DMEM) supplemented with 10% bovine calf serum, penicillin and streptomycin. OP-puro was added to cells in complete culture medium. After incubation for the desired amount of time, the cells were washed with PBS and then fixed with cold methanol for 2 minutes at −20° C. The cells were washed with TBS (10 mM Tris pH 7.5, 150 mM NaCl), permeabilized with TBST (TBS with 0.2% Triton X-100), and then washed with TBS again. CuAAC detection of OP-puro incorporated into nascent protein was performed by reacting the fixed cells for 30 minutes at room temperature with 20 μM Alexa568-azide, as described (Salic et al., Proc. Natl. Acad. Sci. USA 105(7):2415-2420 (2008)). Cu(I) was generated in situ from CuSO4 and ascorbic acid. After staining, the coverslips were washed several times with TBST, counterstained with Hoechst, and mounted in standard mounting media. The stained cells were imaged by DIC and by epi-fluorescence microscopy on a Nikon TE2000U microscope equipped with an OrcaER camera (Hammamatsu), and 20× PlanApo 0.75 NA and 40× PlanApo 0.95 NA air objectives (Nikon). Images were collected using Metamorph image acquisition software (Applied Precision).
To determine if protein synthesis is required for OP-puro incorporation into nascent polypeptides, cells were incubated with OP-puro, in the presence or absence of 50 micrograms/mL cycloheximide (CHX), added to the cells 15 minutes before OP-puro. This concentration of CHX was determined to completely block protein translation in cells.
To determine the effect of inhibiting the proteasome on the stability of OP-puro-conjugated polypeptide chains, cells were pulse-labeled with 50 microM OP-puro for 15 minutes and were then incubated in complete media supplemented with 50 micrograms/mL CHX (to block further incorporation of OP-puro into nascent proteins), in the presence or absence of 5 microM of the proteasome inhibitor bortezomib. Cells were fixed at the indicated times and were stained in parallel with Alexa568-azide. Two negative controls were used: 1) untreated cells; and 2) cells pre-incubated with 50 micrograms/mL CHX for 15 minutes, followed by incubation with 50 microM OP-puro and 50 micrograms/mL CHX for another 15 minutes.

[4] = tested on: Human 293T cells; test: affinity purification of nascent polypeptide-OP-puro conjugates (CuAAC with biotin azide, beads, autoradiography); type: cell-based; conditions: 25 microM OP-puro, 1 hour, FIG. 1E
Description: Human 293T cells were labeled for 1 hour in Met-free DMEM supplemented with 10% dialyzed fetal bovine serum and 35[S]-Met (100 microCi/mL final). The cells were then incubated in the same media, in the presence of 10 microM puro, 25 microM OP-puro or 25 microM OP-puro and 50 micrograms/mL CHX, for an additional 1 hour. The cells were harvested, washed with ice cold PBS and then lyzed on ice in 100 mM Tris pH 8.5 with 1% Triton-X10 and protease inhibitors. The lysates were clarified by centrifugation for 15 minutes at 20,000 g and 4° C., and were then subjected to CuAAC with biotin azide for 30 minutes at room temperature. The final concentrations in the CuAAC reaction were: 100 microM biotin azide, 1 mM CuSO4 and 50 mM ascorbic acid (added last to the lysates). Biotinylated proteins were diluted in binding buffer (20 mM Tris pH 8, 500 mM NaCl, 1% Triton-X100) and were bound to Neutravidin beads (Pierce). After extensive washes with binding buffer, bound proteins were eluted, separated by SDS-PAGE and detected by autoradiography.

[5] = tested on: nascent proteins in mouse tissues; test: imaging of protein synthesis in whole animals with OP-puro, CuAAC with TMR-azide; type: in vivo
Description: One hundred microliters of a 20 mM solution of OP-puro in PBS were injected intraperitoneally into a 3-week old mouse, while a mouse injected with 100 microliters of PBS was used as negative control. Various organs were harvested after one hour and were fixed in formalin overnight. Organ fragments were embedded in paraffin, sectioned, and washed with xylene to remove the paraffin. After washing with ethanol and rehydration in TBS, the tissue sections were stained with 20 microM tetramethylrhodamine(TMR)-azide, as described (Salic et al., Proc. Natl. Acad. Sci. USA 105(7):2415-2420 (2008)). The tissue sections were counterstained with Hoechst, mounted in standard mounting media and were then imaged by fluorescence microscopy and DIC.

[6] = tested on: human embryonic kidney 293T cells; test: translation inhibition in cells: 35S-Met bulk protein translation, SDS-PAGE and autoradiography; type: cell-based
Description: To measure translation inhibition in cells, human embryonic kidney 293T cells were pre-incubated for 30 minutes with varying concentrations of puro or OP-puro, in complete media. The cells were then incubated for 3 hours in Met-free media supplemented with 35[S]-Met (from Perkin-Elmer, at 100 microCi/mL final concentration), in the continued presence of varying concentrations of puro or OP-puro. The cells were harvested, lyzed in TBS with 1% Triton X-100 and protease inhibitors (Complete tablets, Roche), and centrifuged for 15 minutes at 20,000 g in a refrigerated centrifuge. The clarified cells lysates were analyzed by SDS-PAGE, followed by autoradiography, to measure bulk protein translation.

In the case of `CN(C)c1ncnc2c1ncn2[C@@H]1O[C@H](CO)[C@@H](NC(=O)[C@@H](N)Cc2ccc(OCCN=[N+]=[N-])cc2)[C@H]1O` [AE-puro, (S)-2-Amino-3-(4-(2-azidoethoxy)phenyl)-N-((2S,3S,4R,5R)-5-(6-(dimethylamino)-9H-purin-9-yl)-4-hydroxy-2(hydroxymethyl)tetrahydrofuran-3-yl)propanamide], the “potency of protein synthesis inhibition compared with unmodified puromycin” value ([1]; reticulocyte lysates, FIG. 5B) was “equal to that of unmodified puromycin” and the “inhibition of protein translation in vitro” value [1] was “inhibits protein synthesis in a dose-dependent manner”.

In the case of `[N-]=[N+]=NCC[C@H](N)C(=O)O` [Aha, azidohomoalanine], the “factor by which cells prefer Met over the analog” value [2] is given as “about 500”.

For `C[C@@H]1C[C@@H]([C@H](O)CC2CC(=O)NC(=O)C2)C(=O)[C@@H](C)C1` [CHX, cycloheximide, reference compound], the “effect on OP-puro incorporation / conjugate formation” value ([3]; CHX 50 micrograms/mL) was “abolished; also recorded: do not form” and the “concentration determined to completely block protein translation in cells” value ([3]; added 15 minutes before OP-puro) was 50 micrograms/mL.

In the case of `C#CCCC(N)C(=O)O` (stereo not drawn) [Hpg, homopropargylglycine], the “factor by which cells prefer Met over the analog” value [2] is given as “about 500”.

For `C#CCOc1ccc(C[C@H](N)C(=O)N[C@H]2[C@@H](O)[C@H](n3cnc4c(N(C)C)ncnc43)O[C@@H]2CO)cc1` [OP-puro, (S)-2-Amino-N-((2S,3S,4R,5R)-5-(6-(dimethylamino)-9H-purin-9-yl)-4-hydroxy-2-(hydroxymethyl)tetrahydrofuran-3-yl)-3-(4-(prop-2-yn-1-yloxy)phenyl)propanamide], the “fluorescent signal versus OP-puro concentration” value ([3]; 1 hour incubation, Alexa568-azide, FIG. 2A) was “specific fluorescent signal proportional to the concentration of OP-puro; also recorded: proportional to the concentration of added OP-puro”, the “cytoplasmic OP-puro signal at later time points” value ([3]; 3 hour image of FIG. 2B) was “significantly decreased” and the “incubation time after which a strong signal was seen” value ([3]; FIG. 2B) was 15 min. For the same compound, the “concentration sufficient to completely block protein synthesis” value ([3]; stated in legend of FIG. 2B) was 50 µM, the “potency of protein synthesis inhibition, fold lower than that of unmodified puro” value ([1]; reticulocyte lysates, FIG. 1C) was 2-3 fold and the “inhibition of protein translation in vitro” value [1] was “inhibits protein synthesis in a dose-dependent manner”. The “formation of conjugates with nascent polypeptide chains” value [4] was “formed conjugates with 35[S]-Met-labeled nascent polypeptide chains”, the “OP-puro incorporation into nascent proteins in tissues” value ([5]; 100 microliters 20 mM intraperitoneally, organs harvested after 1 hour) was “specific patterns of OP-puro incorporation into nascent proteins” and the “OP-puro staining pattern, small intestine” value ([5]; intraperitoneal, 1 hour, FIG. 3A/3B) was “strongest in cells in the crypts and at the base of intestinal villi; also recorded: stains strongly the cells in the crypts (particularly Paneth cells) and the cells at the base of the villi”. For the same compound, the “OP-puro staining, muscle” value ([5]; intraperitoneal, 1 hour, FIG. 3C) was “striking striated pattern; also recorded: Sarcomeres are strongly stained”, the “OP-puro staining, liver” value ([5]; intraperitoneal, 1 hour, FIG. 4A) was “strongest in hepatocytes; also recorded: stains strongly all hepatocytes” and the “OP-puro staining, spleen” value ([5]; intraperitoneal, 1 hour, FIG. 4C) was “strongest OP-puro signal is found at the organ's periphery, under the capsule”. The “concentration that blocked protein synthesis almost completely” value ([6]; cell type not stated at the place) was 25 µM and the “potency of protein synthesis inhibition, fold lower than that of unmodified puro” value ([6]; cultured cells, FIG. 1D) was 2-3 fold.

For `CC(C)C[C@H](NC(=O)[C@H](Cc1ccccc1)NC(=O)c1cnccn1)B(O)O` [bortezomib, reference compound], the “effect on stability of OP-puro conjugates” value ([3]; 5 microM bortezomib in chase, FIG. 2C) was “become stable; also recorded: completely stabilized”.

Source: patent publication US9212381B2, “Methods and compositions for labeling polypeptides” (President and Fellows of Harvard College, priority 2011, dated 2015)
